The values below come from patent US10675360B2 (MADRIGAL PHARMACEUTICALS, INC., priority 2014, dated 2020).

This data set is described as follows: Stability in mouse plasma. Format: in vitro ADME. As to conditions: 1 h.

Protocol: SDC-TRAP-0022 and SDC-TRAP-0028 were incubated in human and mouse plasma for 2 h at 37° C. and assayed for integrity at 0.25, 0.5, 1 and 2 h. The values reported below are the remaining of the parent compound at the end of the 2 h incubation period.
This solution was used to precipitate all plasma samples in the study. 200 μL was pipetted into a 96 deepwell plate over dry ice. 10 μL of 1 mM stock in DMSO was added to a 1.5 mL microfuge tube, then 990 μL of plasma. Samples were mixed by vortex, then 50 μL of each sample was added in triplicate to a 96-well plate containing internal standard solution. This was designated the 0 hour time point sample. 250 μL of the remaining plasma sample was added to each of four 96 deepwell plates—one per time point. Samples were incubated at 37° C. with gentle shaking for 0.25, 0.5, and 1 hour. After each time point, one plate of each sample was removed from the shaker and placed on wet ice for approximately 2 minutes. 50 μL plasma aliquots (in triplicate) were added to the deepwell plate containing internal standard solution. After the last time point was extracted, the 96 deepwell plate was vortexed, then centrifuged at 2-8° C. 150 μL of supernatant was collected and 25 μL of water was added. Samples were mixed and analyzed by LC-MS/MS.
The stability of seven SDC-TRAP types in mouse plasma was measured as follows. 990 μL mouse plasma aliquots from a common stock were spiked with 10 μL of 1 mM stock of one of seven SDC-TRAP samples identified in the table below. Each sample was mixed and divided into 250 μL aliquots, each representing time points 0, 15 minutes, 30 minutes or 1 hour. At the prescribed time point, 3×50 μL samples were each mixed with 200 μL of methanol containing internal standard and held on dry ice until all time point samples were extracted. The samples collectively were vortex mixed for 1.5 minutes at 1500 rpm, then centrifuged at 4400 rpm for 10 minutes at 8° C.

`CCNC(=O)c1nnc(-c2cc(C(C)C)c(O)cc2O)n1-c1ccc(Oc2ccc(C(=O)N3CCC(N(C)C(=O)Oc4ccc5nc6c(c(CC)c5c4)Cn4c-6cc5c(c4=O)COC(=O)C5(O)CC)CC3)cc2)cc1` (stereo not shown) [SDC-TRAP-0180, 4,11-Diethyl-4-hydroxy-3,14-dioxo-3,4,12,14-tetrahydro-1H-pyrano[3′,4′:6,7]indolizino[1,2-b]quinolin-9-yl (1-(4-(4-(3-(2,4-dihydroxy-5-isopropylphenyl)-5-(ethylcarbamoyl)-4H-1,2,4-triazol-4-yl)phenoxy)benzoyl)piperidin-4-yl)(methyl)carbamate]: the “% Remaining” value (mouse plasma, 37° C.) was 72.4%. As to `CCc1c2c(nc3ccc(OC(=O)N(C)CCCCN4CCN(Cc5ccc(-n6c(O)nnc6-c6cc(C(C)C)c(O)cc6O)cc5)CC4)cc13)-c1cc3c(c(=O)n1C2)COC(=O)C3(O)CC` (stereo not shown) [SDC-TRAP-0044, 4,11-diethyl-4-hydroxy-3,14-dioxo-3,4,12,14-tetrahydro-1H-pyrano[3′,4′:6,7]indolizino[1,2-b]quinolin-9-yl (4-(4-(4-(3-(2,4-dihydroxy-5-isopropylphenyl)-5-hydroxy-4H-1,2,4-triazol-4-yl)benzyl)piperazin-1-yl)butyl)(methyl)carbamate], the “% Remaining” value (mouse plasma, 37° C.) is given as 61%. For the molecule `CCNC(=O)c1nnc(-c2cc(C(C)C)c(O)cc2O)n1-c1ccc(CN2CCC(C(=O)N3CCC(COC(=O)Nc4cccc5c4CN(C4CCC(=O)NC4=O)C5=O)CC3)CC2)cc1` (stereo not shown) [SDC-TRAP-0124, (1-(1-(4-(3-(2,4-Dihydroxy-5-isopropylphenyl)-5-(ethylcarbamoyl)-4H-1,2,4-triazol-4-yl)benzyl)piperidine-4-carbonyl)piperidin-4-yl)methyl (2-(2,6-dioxopiperidin-3-yl)-1-oxoisoindolin-4-yl)carbamate], the “% Remaining” value (mouse, plasma, 10 μM) turned out to be 112%.

As to `COc1cc(O)c(-c2nnc(C(=O)NC(C)C)n2-c2ccc(CN3CCC(C(=O)Nc4cccc5c4CN(C4CCC(=O)NC4=O)C5=O)CC3)cc2)cc1C(C)C` (stereo not shown) [SDC-TRAP-0115, N-(2-(2,6-dioxopiperidin-3-yl)-1-oxoisoindolin-4-yl)-1-(4-(3-(2-hydroxy-5-isopropyl-4-methoxyphenyl)-5-(isopropylcarbamoyl)-4H-1,2,4-triazol-4-yl)benzyl)piperidine-4-carboxamide], the “% Remaining” value (mouse, plasma, 10 μM) worked out at 85.9%. Consider `CCNC(=O)c1nnc(-c2cc(C(C)C)c(O)cc2O)n1-c1ccc(C(=O)N(C)CC(=O)Nc2cccc3c2CN(C2CCC(=O)NC2=O)C3=O)cc1` (stereo not shown) [SDC-TRAP-0147, 5-(2,4-dihydroxy-5-isopropylphenyl)-4-(4-((2-((2-(2,6-dioxopiperidin-3-yl)-1-oxoisoindolin-4-yl)amino)-2-oxoethyl)(methyl)carbamoyl)phenyl)-N-ethyl-4H-1,2,4-triazole-3-carboxamide], for which the “% Remaining” value (mouse, plasma, 10 μM) came out at 98.1%.

For `CCNC(=O)c1nnc(-c2cc(C(C)C)c(O)cc2O)n1-c1ccc(OC2CCN(C(=O)C3CCN(C(=O)Oc4ccc5nc6c(c(CC)c5c4)Cn4c-6cc5c(c4=O)COC(=O)[C@]5(O)CC)C(C)C3)CC2)cc1` (stereo partly drawn) [SDC-TRAP-0213, (S)-4,11-diethyl-4-hydroxy-3,14-dioxo-3,4,12,14-tetrahydro-1H-pyrano[3′,4′:6,7]indolizino[1,2-b]quinolin-9-yl 4-(4-(4-(3-(2,4-dihydroxy-5-isopropylphenyl)-5-(ethylcarbamoyl)-4H-1,2,4-triazol-4-yl)phenoxy)piperidine-1-carbonyl)-2-methylpiperidine-1-carboxylate], the “% Remaining” value (mouse plasma, 37° C.) is 74.7%. Regarding `CCNC(=O)c1nnc(-c2cc(C(C)C)c(O)cc2O)n1-c1ccc(OC2CCN(C(=O)[C@@H]3CCCN3C(=O)Oc3ccc4nc5c(c(CC)c4c3)Cn3c-5cc4c(c3=O)COC(=O)[C@]4(O)CC)CC2)cc1` [SDC-TRAP-0209], the “% Remaining” value (mouse plasma, 37° C.) amounted to 67.1%. Consider `CCNC(=O)c1nnc(-c2cc(C(C)C)c(O)cc2O)n1-c1ccc(CN2CCC(C(=O)N[C@H](C(=O)Nc3cccc4c3CN(C3CCC(=O)NC3=O)C4=O)C(C)C)CC2)cc1` (stereo partly drawn) [SDC-TRAP-0163, 1-(4-(3-(2,4-dihydroxy-5-isopropylphenyl)-5-(ethylcarbamoyl)-4H-1,2,4-triazol-4-yl)benzyl)-N-((2S)-1-((2-(2,6-dioxopiperidin-3-yl)-1-oxoisoindolin-4-yl)amino)-3-methyl-1-oxobutan-2-yl)piperidine-4-carboxamide], for which the “% Remaining” value (mouse, plasma, 10 μM) came to 93.0%. `CCNC(=O)c1nnc(-c2cc(C(C)C)c(O)cc2O)n1-c1ccc(CN2CCC(C(=O)N3CCC(N(C)C(=O)Oc4ccc5nc6c(c(CC)c5c4)Cn4c-6cc5c(c4=O)COC(=O)C5(O)CC)CC3)CC2)cc1` (stereo not shown) [SDC-TRAP-0172, 4,11-diethyl-4-hydroxy-3,14-dioxo-3,4,12,14-tetrahydro-1H-pyrano[3′,4′:6,7]indolizino[1,2-b]quinolin-9-yl (1-(1-(4-(3-(2,4-dihydroxy-5-isopropylphenyl)-5-(ethylcarbamoyl)-4H-1,2,4-triazol-4-yl)benzyl)piperidine-4-carbonyl)piperidin-4-yl)(methyl)carbamate]: the “% Remaining” value (mouse plasma, 37° C.) turned out to be 74.7%. Regarding `CC(C)c1cc(-c2nnc(O)n2-c2ccc(CN3CCN(C(=O)c4ccc(COC(=O)Nc5cccc6c5CN(C5CCC(=O)NC5=O)C6=O)cc4)CC3)c(F)c2)c(O)cc1O` (stereo not shown) [SDC-TRAP-0157, 4-(4-(4-(3-(2,4-dihydroxy-5-isopropylphenyl)-5-hydroxy-4H-1,2,4-triazol-4-yl)-2-fluorobenzyl)piperazine-1-carbonyl)benzyl (2-(2,6-dioxopiperidin-3-yl)-1-oxoisoindolin-4-yl)carbamate], the “% Remaining” value (mouse, plasma, 10 μM) is 81.4%. Turning to `CCc1c2c(nc3ccc(O)cc13)-c1cc3c(c(=O)n1C2)COC(=O)C3(CC)OC(=O)N1CCN(Cc2ccc(-n3c(O)nnc3-c3cc(C(C)C)c(O)cc3O)cc2)CC1` (stereo not shown) [SDC-TRAP-0047, 4,11-diethyl-9-hydroxy-3,14-dioxo-3,4,12,14-tetrahydro-1H-pyrano[3′,4′:6,7]indolizino[1,2-b]quinolin-4-yl 4-(4-(3-(2,4-dihydroxy-5-isopropylphenyl)-5-hydroxy-4H-1,2,4-triazol-4-yl)benzyl)piperazine-1-carboxylate], the “% Remaining” value (mouse plasma, 37° C.) is 89%. Consider `CCNC(=O)c1nnc(-c2cc(C(C)C)c(O)cc2O)n1-c1ccc2c(c1)CN(Cc1cc(OC)c(OC(=O)Nc3cccc4c3CN(C3CCC(=O)NC3=O)C4=O)c(OC)c1)C2` (stereo not shown) [SDC-TRAP-0196], for which the “% Remaining” value (mouse, plasma, 10 μM) is reported as 66.2%. As for `CCNC(=O)c1nnc(-c2cc(C(C)C)c(O)cc2O)n1-c1ccc(OC2CCN(C(=O)Oc3c(C)cc(COC(=O)Nc4cccc5c4CN(C4CCC(=O)NC4=O)C5=O)cc3C)CC2)cc1` (stereo not shown) [SDC-TRAP-0187, 4-((((2-(2,6-dioxopiperidin-3-yl)-1-oxoisoindolin-4-yl)carbamoyl)oxy)methyl)-2,6-dimethylphenyl 4-(4-(3-(2,4-dihydroxy-5-isopropylphenyl)-5-(ethylcarbamoyl)-4H-1,2,4-triazol-4-yl)phenoxy)piperidine-1-carboxylate], the “% Remaining” value (mouse, plasma, 10 μM) worked out at 102%. The same measure, in the same setting: to `CCNC(=O)c1nnc(-c2cc(C(C)C)c(O)cc2O)n1-c1ccc(CN2CCC(C(=O)N(C)CCCOC(=O)Nc3cccc4c3CN(C3CCC(=O)NC3=O)C4=O)CC2)cc1` (stereo not shown) [SDC-TRAP-0231, 3-(1-(4-(3-(2,4-dihydroxy-5-isopropylphenyl)-5-(ethylcarbamoyl)-4H-1,2,4-triazol-4-yl)benzyl)-N-methylpiperidine-4-carboxamido)propyl (2-(2,6-dioxopiperidin-3-yl)-1-oxoisoindolin-4-yl)carbamate] belongs 98.3%; to `CC(C)c1cc(-c2nnc(O)n2-c2ccc(N3CCN(C(=O)c4ccc(COC(=O)Nc5cccc6c5CN(C5CCC(=O)NC5=O)C6=O)cc4)CC3)cc2)c(O)cc1O` (stereo not shown) [SDC-TRAP-0156, 4-(4-(4-(3-(2,4-Dihydroxy-5-isopropylphenyl)-5-hydroxy-4H-1,2,4-triazol-4-yl)phenyl)piperazine-1-carbonyl)benzyl (2-(2,6-dioxopiperidin-3-yl)-1-oxoisoindolin-4-yl)carbamate], 90.3%. For `CCc1c2c(nc3ccc(OC(=O)N4CCN(Cc5ccc(-n6c(O)nnc6-c6cc(C(C)C)c(O)cc6O)cc5)CC4C)cc13)-c1cc3c(c(=O)n1C2)COC(=O)C3(O)CC` (stereo not shown) [SDC-TRAP-0220, 4,11-diethyl-4-hydroxy-3,14-dioxo-3,4,12,14-tetrahydro-1H-pyrano[3′,4′:6,7]indolizino[1,2-b]quinolin-9-yl 4-(4-(3-(2,4-dihydroxy-5-isopropylphenyl)-5-hydroxy-4H-1,2,4-triazol-4-yl)benzyl)-2-methylpiperazine-1-carboxylate], under “mouse plasma, 37° C.”, the “% Remaining” value was 78.3%. On to `CCNC(=O)c1nnc(-c2cc(C(C)C)c(O)cc2O)n1-c1ccc(CN2CCC(C(=O)N3CCC[C@H]3C(=O)Nc3cccc4c3CN(C3CCC(=O)NC3=O)C4=O)CC2)cc1` (stereo partly drawn) [SDC-TRAP-0164, 5-(2,4-dihydroxy-5-isopropylphenyl)-4-(4-((4-((2S)-2-((2-(2,6-dioxopiperidin-3-yl)-1-oxoisoindolin-4-yl)carbamoyl)pyrrolidine-1-carbonyl)piperidin-1-yl)methyl)phenyl)-N-ethyl-4H-1,2,4-triazole-3-carboxamide], for which the “% Remaining” value (mouse, plasma, 10 μM) came to 98.0%. Regarding `CCc1c2c(nc3ccc(O)cc13)-c1cc3c(c(=O)n1C2)COC(=O)[C@@]3(CC)OC(=O)N1CCC(CCc2ccc(-n3c(O)nnc3-c3cc(C(C)C)c(O)cc3O)cc2)CC1` [SDC-TRAP-0104, (S)-4,11-diethyl-9-hydroxy-3,14-dioxo-3,4,12,14-tetrahydro-1H-pyrano[3′,4′:6,7]indolizino[1,2-b]quinolin-4-yl 4-(4-(3-(2,4-dihydroxy-5-isopropylphenyl)-5-hydroxy-4H-1,2,4-triazol-4-yl)phenethyl)piperidine-1-carboxylate], the “% Remaining” value (mouse plasma, 37° C.) is listed as 95.5%. On to `CCc1c2c(nc3ccc(O)cc13)-c1cc3c(c(=O)n1C2)COC(=O)C3(CC)OC(=O)CCC(=O)N1CCC(Cc2ccc(-n3c(O)nnc3-c3cc(C(C)C)c(O)cc3O)cc2)CC1` (stereo not shown) [SDC-TRAP-0042, 4,11-diethyl-9-hydroxy-3,14-dioxo-3,4,12,14-tetrahydro-1H-pyrano[3′,4′:6,7]indolizino[1,2-b]quinolin-4-yl 4-(4-(4-(3-(2,4-dihydroxy-5-isopropylphenyl)-5-hydroxy-4H-1,2,4-triazol-4-yl)benzyl)piperidin-1-yl)-4-oxobutanoate], for which the “% Remaining” value (mouse plasma, 37° C.) was 74%.
